Measurements as given in the NIST ThermoML archive (doi:10.1021/je800894y).

Experiment: xn = mol fraction of the nth substance listed
Conditions: Liquid; for viscosity: Vibrating wire viscometry; for mass density: vibrating-wire apparatus

CC(C)CCCC(C)CCCC(C)CCCCC(C)CCCC(C)CCCC(C)C (stereo unspecified) [2,6,10,15,19,23-hexamethyltetracosane] + O=C=O
Conditions | mass density [kg/m3] | viscosity [mPa·s]
398.13 K, 10940 kPa, x2 = 0.6039 | 749.2 | 1.01
398.13 K, 11100 kPa, x2 = 0.6039 | 748.9 | 1
398.13 K, 30870 kPa, x2 = 0.6039 | 771.8 | 1.3
398.13 K, 50550 kPa, x2 = 0.6039 | 789.2 | 1.61
398.13 K, 70810 kPa, x2 = 0.6039 | 804.2 | 1.95
398.13 K, 91230 kPa, x2 = 0.6039 | 817.2 | 2.31
398.13 K, 110700 kPa, x2 = 0.6039 | 828.2 | 2.69
398.13 K, 131240 kPa, x2 = 0.6039 | 838.7 | 3.12
398.13 K, 150740 kPa, x2 = 0.6039 | 847.7 | 3.57
398.13 K, 170660 kPa, x2 = 0.6039 | 856.2 | 4.08
398.31 K, 10790 kPa, x2 = 0.4233 | 749 | 1.38
398.31 K, 10830 kPa, x2 = 0.4233 | 755.3 | 1.39
398.31 K, 30180 kPa, x2 = 0.4233 | 768.1 | 1.79
398.31 K, 50350 kPa, x2 = 0.4233 | 784 | 2.24
398.31 K, 70500 kPa, x2 = 0.4233 | 797.4 | 2.74
398.31 K, 90450 kPa, x2 = 0.4233 | 808.9 | 3.3
398.31 K, 110290 kPa, x2 = 0.4233 | 819.1 | 3.92
398.31 K, 130350 kPa, x2 = 0.4233 | 828.4 | 4.62
398.31 K, 150520 kPa, x2 = 0.4233 | 837.2 | 5.4
398.31 K, 170000 kPa, x2 = 0.4233 | 845 | 6.24
398.33 K, 30150 kPa, x2 = 0.7882 | 760.4 | 0.62
398.33 K, 30500 kPa, x2 = 0.7882 | 759.9 | 0.62
398.33 K, 50500 kPa, x2 = 0.7882 | 786.7 | 0.78
398.33 K, 70580 kPa, x2 = 0.7882 | 807.3 | 0.94
398.33 K, 90510 kPa, x2 = 0.7882 | 824.2 | 1.1
398.33 K, 110760 kPa, x2 = 0.7882 | 839 | 1.28
398.33 K, 130550 kPa, x2 = 0.7882 | 851.6 | 1.46
398.33 K, 150620 kPa, x2 = 0.7882 | 863.2 | 1.65
398.33 K, 170310 kPa, x2 = 0.7882 | 873.6 | 1.84
448.13 K, 10630 kPa, x2 = 0.6039 | 713.1 | 0.69
448.13 K, 11010 kPa, x2 = 0.6039 | 713.3 | 0.68
448.13 K, 30730 kPa, x2 = 0.6039 | 739.7 | 0.89
448.13 K, 50590 kPa, x2 = 0.6039 | 759.8 | 1.09
448.13 K, 70380 kPa, x2 = 0.6039 | 776.6 | 1.22
448.13 K, 91380 kPa, x2 = 0.6039 | 791.8 | 1.43
448.13 K, 111050 kPa, x2 = 0.6039 | 804.5 | 1.63
448.13 K, 130810 kPa, x2 = 0.6039 | 815.7 | 1.84
448.13 K, 150960 kPa, x2 = 0.6039 | 826 | 2.08
448.13 K, 171000 kPa, x2 = 0.6039 | 835.3 | 2.35
448.35 K, 11450 kPa, x2 = 0.4233 | 715.2 | 0.8
448.35 K, 11570 kPa, x2 = 0.4233 | 720.6 | 0.81
448.35 K, 30330 kPa, x2 = 0.4233 | 737.6 | 1.04
448.35 K, 50410 kPa, x2 = 0.4233 | 756.5 | 1.3
448.35 K, 70450 kPa, x2 = 0.4233 | 771.8 | 1.57
448.35 K, 90670 kPa, x2 = 0.4233 | 785.2 | 1.86
448.35 K, 110310 kPa, x2 = 0.4233 | 796.6 | 2.17
448.35 K, 130440 kPa, x2 = 0.4233 | 807 | 2.52
448.35 K, 150510 kPa, x2 = 0.4233 | 816.5 | 2.88
448.35 K, 169900 kPa, x2 = 0.4233 | 824.8 | 3.28
448.41 K, 30160 kPa, x2 = 0.7882 | 714.5 | 0.41
448.41 K, 30820 kPa, x2 = 0.7882 | 714.9 | 0.41
448.41 K, 50450 kPa, x2 = 0.7882 | 748 | 0.52
448.41 K, 70350 kPa, x2 = 0.7882 | 772.5 | 0.63
448.41 K, 90420 kPa, x2 = 0.7882 | 792.3 | 0.74
448.41 K, 110590 kPa, x2 = 0.7882 | 809.1 | 0.85
448.41 K, 130360 kPa, x2 = 0.7882 | 823.3 | 0.97
448.41 K, 150480 kPa, x2 = 0.7882 | 836.2 | 1.1
448.41 K, 169720 kPa, x2 = 0.7882 | 847.5 | 1.22
